How the values were obtained:
[1] = system: carrageenin-induced rat foot edema; assay: carrageenin-induced rat foot edema test; type: in vivo; conditions: for % Inhibition at 32 mg./kg. (inhibition of edema formation): rats, 32 mg./kg. orally (by gavage), compared to vehicle control
Excerpt: (§1) Such conditions include gastrointestinal disorders such as ulcer and colitis and other like diseases of the gastrointestinal tract, central nervous system disorders such as anxiety and psychosis, inflammatory diseases such as rheumatoid arthritis and inflammatory bowel diseases, respiratory diseases such as asthma, as well as pain in any of the aforesaid conditions, including migraine. […] A. Winter et al., Proceedings of the Society of Experimental Biology and Medicine, Vol. 111, p.
In this test, anti-inflammatory activity is determined as the percent inhibition of edema formation in the hind par of male albino rats (weighing 150-190 g.) in response to a sub-plantar injection of carrageenin. The carrageenin is injected as a 1% aqueous solution. Edema formation is then assessed by measuring the volume of the injected paw initially as well as three hours after the carrageenin injection. The increase in volume three hours after carrageenin injection constitutes the individual response. Compounds are considered active if the difference in response between the drug-treated animals (six rats/group) and a control group receiving the vehicle alone is significant on comparison with the results afforded by a standard compound like phenylbutazone at 33 mg./kg., via the oral route of administration.
The following cis-[(cyclic)methylamino]-2-benzhydrylquinuclidine final products of Examples 2, 3 and 4, respectively, were tested for anti-inflammatory activity in rats, using the standard rat foot edema test, according to the general procedure described by C. A. Winter et al., as first reported in the Proceedings of the Society for Experimental Biology and Medicine, Vol. 111, p. 544 (1962).

[2] = system: substance P-induced locomotion; assay: suppression of substance P-induced hypermotility (locomotion) in rats; type: in vivo, rat; conditions: 32 mg./kg. dose level, intraperitoneal route
Excerpt: as §1
The anti-psychotic activity of the compounds of the present invention as neuroleptic agents for the control of various psychotic disorders is determined primarily by a study of their ability to suppress substance P-induced hypermotility in rats. This study is carried out by first dosing the rats with a control compound or with an appropriate test compound of the present invention, then injecting the rats with substance P by intracerebral administration via canula and thereafter measuring their individual locomotor response to said stimuli.

SMILES	% Inhibition at 32 mg./kg. (inhibition of edema formation) [1]	inhibition in swelling ([1]; rat, 100 mg./kg. dose level, oral route)	inhibition of substance P-induced locomotion [2]
FC(F)(F)c1ccccc1CN[C@H]1C2CCN(CC2)[C@H]1C(c1ccccc1)c1ccccc1 (relative stereo) [Example 3, cis-3-[(2-trifluorophenyl)methylamino]-2-benzhydrylquinuclidine]	50%	–	–
COc1ccccc1CN[C@H]1C2CCN(CC2)[C@H]1C(c1ccccc1)c1ccccc1 (relative stereo) [Example 4, cis-3-[(2-methoxyphenyl)methylamino]-2-benzhydrylquinuclidine]	38%	–	–
Clc1ccccc1CN[C@H]1C2CCN(CC2)[C@H]1C(c1ccccc1)c1ccccc1 (relative stereo) [Example 2, cis-3-[(2-chlorophenyl)methylamino]-2-benzhydrylquinuclidine]	29%	50%	50%

Source: US5162339A, “Quinuclidine therapeutic agents” (Pfizer Inc., priority 1990, dated 1992)
